Reference: publication PMC9743092, “Membrane-Active Cyclic Amphiphilic Peptides: Broad-Spectrum Antibacterial Activity Alone and in Combination with Antibiotics” (Journal of Medicinal Chemistry, 2022)
Square brackets hold non-standard residues; d marks the D form. Peptide text beside a SMILES is read from it.

Key:
MRSA (ATCC BAA-1556) = test system: MRSA (ATCC BAA-1556); set-up: MIC MRSA: unit not given beside the values; settings: supplementary csv, unit not given
[1] = test system: K. pneumoniae (ATCC BAA-1705); settings: supplementary csv, unit not given
[2] = test system: P. aeruginosa (ATCC 27883); set-up: MIC P. aeruginosa: unit not given beside the values; settings: supplementary csv, unit not given
E. coli (ATCC 25922) = test system: E. coli (ATCC 25922); set-up: MIC E. coli: unit not given beside the values; settings: supplementary csv, unit not given
[3] = test system: human red blood cells (hRBCs); settings: red cells of human, 2 h

| MIC K. pneumoniae [1] | MIC P. aeruginosa [2] | Compound | MIC MRSA (MRSA (ATCC BAA-1556)) | MIC E. coli (E. coli (ATCC 25922)) | HC50 [3] [µg/mL] |
| --- | --- | --- | --- | --- | --- |
| 256 | 256 | N=C(N)NCCC[C@@H]1NC(=O)[C@H](CCCNC(=N)N)NC(=O)[C@H](Cc2c[nH]c3ccccc23)NC(=O)[C@H](Cc2c[nH]c3ccccc23)NC(=O)[C@H](Cc2c[nH]c3ccccc23)NC(=O)[C@H](Cc2c[nH]c3ccccc23)NC1=O [2b, [R2W4]] (cyclo(RRWWWW); ring closure inferred) | 64 | 256 | 85 |
| – | – | N=C(N)NCCC[C@@H]1NC(=O)[C@H](CCCNC(=N)N)NC(=O)[C@H](Cc2c[nH]c3ccccc23)NC(=O)[C@H](Cc2c[nH]c3ccccc23)NC(=O)[C@H](Cc2c[nH]c3ccccc23)NC(=O)[C@H](Cc2c[nH]c3ccccc23)NC(=O)[C@H](Cc2c[nH]c3ccccc23)NC(=O)[C@H](CCCNC(=N)N)NC1=O [3c, [R3W5]] (cyclo(RRRWWWWW); ring closure inferred) | – | – | 80 |
| 64 | 256 | N=C(N)NCCC[C@@H]1NC(=O)[C@H](CCCNC(=N)N)NC(=O)[C@H](Cc2c[nH]c3ccccc23)NC(=O)[C@H](Cc2c[nH]c3ccccc23)NC(=O)[C@H](Cc2c[nH]c3ccccc23)NC(=O)[C@H](Cc2c[nH]c3ccccc23)NC(=O)[C@H](Cc2c[nH]c3ccccc23)NC(=O)[C@H](Cc2c[nH]c3ccccc23)NC(=O)[C@H](Cc2c[nH]c3ccccc23)NC(=O)[C@H](CCCNC(=N)N)NC1=O [3e, [R3W7]] (cyclo(RRRWWWWWWW)) | 256 | 256 | 60 |
| 256 | 256 | N=C(N)NCCC[C@H]1NC(=O)[C@H](Cc2c[nH]c3ccccc23)NC(=O)[C@H](Cc2c[nH]c3ccccc23)NC(=O)[C@H](Cc2c[nH]c3ccccc23)NC(=O)[C@H](Cc2c[nH]c3ccccc23)NC(=O)[C@H](Cc2c[nH]c3ccccc23)NC(=O)[C@H](Cc2c[nH]c3ccccc23)NC(=O)[C@H](Cc2c[nH]c3ccccc23)NC(=O)[C@@H](CCCNC(=N)N)NC(=O)[C@@H](CCCNC(=N)N)NC1=O [3f, [dR3W7]] (cyclo([dR][dR][dR]WWWWWWW)) | 64 | 256 | – |
| 64 | 64 | N=C(N)NCCC[C@H]1NC(=O)[C@H](Cc2c[nH]c3ccccc23)NC(=O)[C@H](Cc2c[nH]c3ccccc23)NC(=O)[C@H](Cc2c[nH]c3ccccc23)NC(=O)[C@H](Cc2c[nH]c3ccccc23)NC(=O)[C@@H](CCCNC(=N)N)NC(=O)[C@@H](CCCNC(=N)N)NC(=O)[C@@H](CCCNC(=N)N)NC1=O [4a, [dR4W4]] (cyclo([dR][dR][dR][dR]WWWW)) | 8 | 16 | 110 |
| 128 | 128 | N=C(N)NCCC[C@@H]1NC(=O)[C@H](CCCNC(=N)N)NC(=O)[C@H](CCCNC(=N)N)NC(=O)[C@H](Cc2c[nH]c3ccccc23)NC(=O)[C@H](Cc2c[nH]c3ccccc23)NC(=O)[C@H](Cc2c[nH]c3ccccc23)NC(=O)[C@H](Cc2c[nH]c3ccccc23)NC(=O)[C@H](Cc2c[nH]c3ccccc23)NC(=O)[C@H](CCCNC(=N)N)NC1=O [4b, [R4W5]] | 8 | 64 | 100 |
| – | – | N=C(N)NCCC[C@@H]1NC(=O)[C@H](CCCNC(=N)N)NC(=O)[C@H](CCCNC(=N)N)NC(=O)[C@H](CCCNC(=N)N)NC(=O)[C@H](Cc2c[nH]c3ccccc23)NC(=O)[C@H](Cc2c[nH]c3ccccc23)NC(=O)[C@H](Cc2c[nH]c3ccccc23)NC(=O)[C@H](Cc2c[nH]c3ccccc23)NC(=O)[C@H](Cc2c[nH]c3ccccc23)NC(=O)[C@H](CCCNC(=N)N)NC(=O)[C@H](CCCNC(=N)N)NC(=O)[C@H](CCCNC(=N)N)NC1=O [7b, [R7W5]] (cyclo(RRRRRRRWWWWW)) | 8 | 64 | 175 |
| – | – | N=C(N)NCCC[C@@H]1NC(=O)[C@H](CCCNC(=N)N)NC(=O)[C@H](CCCNC(=N)N)NC(=O)[C@H](CCCNC(=N)N)NC(=O)[C@H](Cc2c[nH]c3ccccc23)NC(=O)[C@H](Cc2c[nH]c3ccccc23)NC(=O)[C@H](Cc2c[nH]c3ccccc23)NC(=O)[C@H](Cc2c[nH]c3ccccc23)NC(=O)[C@H](Cc2c[nH]c3ccccc23)NC(=O)[C@H](Cc2c[nH]c3ccccc23)NC(=O)[C@H](CCCNC(=N)N)NC(=O)[C@H](CCCNC(=N)N)NC(=O)[C@H](CCCNC(=N)N)NC1=O [7c, [R7W6]] (cyclo(RRRRRRRWWWWWW)) | 32 | 64 | 170 |
| – | – | N=C(N)NCCC[C@@H]1NC(=O)[C@H](CCCNC(=N)N)NC(=O)[C@H](CCCNC(=N)N)NC(=O)[C@H](CCCNC(=N)N)NC(=O)[C@H](Cc2c[nH]c3ccccc23)NC(=O)[C@H](Cc2c[nH]c3ccccc23)NC(=O)[C@H](Cc2c[nH]c3ccccc23)NC(=O)[C@H](Cc2c[nH]c3ccccc23)NC(=O)[C@H](Cc2c[nH]c3ccccc23)NC(=O)[C@H](Cc2c[nH]c3ccccc23)NC(=O)[C@H](Cc2c[nH]c3ccccc23)NC(=O)[C@H](CCCNC(=N)N)NC(=O)[C@H](CCCNC(=N)N)NC(=O)[C@H](CCCNC(=N)N)NC1=O [7d, [R7W7]] (cyclo(RRRRRRRWWWWWWW)) | 16 | 32 | 140 |

| Compound | MIC K. pneumoniae [1] | MIC P. aeruginosa [2] | MIC MRSA (MRSA (ATCC BAA-1556)) | MIC E. coli (E. coli (ATCC 25922)) | HC50 [3] [µg/mL] |
| --- | --- | --- | --- | --- | --- |
| N=C(N)NCCC[C@@H]1NC(=O)[C@H](CCCNC(=N)N)NC(=O)[C@H](Cc2c[nH]c3ccccc23)NC(=O)[C@H](Cc2c[nH]c3ccccc23)NC(=O)[C@H](Cc2c[nH]c3ccccc23)NC1=O [2a, [R2W3]] (cyclo(RRWWW); ring closure inferred) | 256 | 256 | 32 | 256 | 120 |
| N=C(N)NCCC[C@@H]1NC(=O)[C@H](CCCNC(=N)N)NC(=O)[C@H](Cc2c[nH]c3ccccc23)NC(=O)[C@H](Cc2c[nH]c3ccccc23)NC(=O)[C@H](Cc2c[nH]c3ccccc23)NC(=O)[C@H](CCCNC(=N)N)NC1=O [3a, [R3W3]] (cyclo(WWWRRR); ring closure inferred) | 64 | 128 | 16 | 32 | 155 |
| N=C(N)NCCC[C@@H]1NC(=O)[C@H](CCCNC(=N)N)NC(=O)[C@H](Cc2c[nH]c3ccccc23)NC(=O)[C@H](Cc2c[nH]c3ccccc23)NC(=O)[C@H](Cc2c[nH]c3ccccc23)NC(=O)[C@H](Cc2c[nH]c3ccccc23)NC(=O)[C@H](CCCNC(=N)N)NC1=O [3b, [R3W4]] (cyclo(RRRWWWW); ring closure inferred) | 64 | 256 | 8 | 32 | 105 |
| N=C(N)NCCC[C@@H]1NC(=O)[C@H](CCCNC(=N)N)NC(=O)[C@H](Cc2c[nH]c3ccccc23)NC(=O)[C@H](Cc2c[nH]c3ccccc23)NC(=O)[C@H](Cc2c[nH]c3ccccc23)NC(=O)[C@H](Cc2c[nH]c3ccccc23)NC(=O)[C@H](Cc2c[nH]c3ccccc23)NC(=O)[C@H](Cc2c[nH]c3ccccc23)NC(=O)[C@H](CCCNC(=N)N)NC1=O [3d, [R3W6]] | 128 | 256 | 64 | 64 | 65 |
